Read-outs that look alike come from different tables or passages of the source.

IC50 data for 19 compounds are collected here from patent US10479780B2, “Aminopyrazole derivatives” (Chugai Seiyaku Kabushiki Kaisha, priority 2015, dated 2019).

Format in all cases: biochemical
Experiment [1] addresses T1, human Yes1 enzyme (Homo sapiens, UniProt P07947).
T1 construct: made in house
As to the kind of experiment: Yes1 enzyme inhibitory activity (time-resolved fluorometry, biotinylated peptide phosphorylation). Conditions: read-out: YES_IC50. The method in brief: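 Inhibition was expressed against a compound-free control to give IC50, using TR-FRET read-out (Eu-cryptate anti-pTyr antibody, streptavidin-XL665).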

Experiment [2] concerns the target T2, human Src enzyme (Homo sapiens, UniProt P12931).
T2 construct: purchased Carna Biosciences, Inc. 08-173
The experiment in a line: Src enzyme inhibitory activity (time-resolved fluorometry, biotinylated peptide phosphorylation). Conditions: read-out: SRC_IC50. The method in brief:
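Compounds were tested for blocking tyrosine phosphorylation of a biotinylated peptide substrate by recombinant human Src. Phosphorylated product was quantified by time-resolved fluorometry using europium cryptate and XL665 conjugates, and IC50 was calculated against the compound-free control.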

The target in experiment [3] is T3, human Lck enzyme (Homo sapiens, UniProt P06239).
T3 construct: purchased Carna Biosciences, Inc. 08-170
The experiment in a line: Lck enzyme inhibitory activity (time-resolved fluorometry, biotinylated peptide phosphorylation). Conditions: read-out: LCK_IC50. In outline: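 Readout pairs a europium cryptate-labelled anti-phosphotyrosine antibody with XL665-streptavidin, measured by time-resolved fluorescence. IC50 derived from percent inhibition against untreated controls.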

Setting [4] is: biotinylated peptide phosphorylation.

T1 sequence (P07947 whole entry): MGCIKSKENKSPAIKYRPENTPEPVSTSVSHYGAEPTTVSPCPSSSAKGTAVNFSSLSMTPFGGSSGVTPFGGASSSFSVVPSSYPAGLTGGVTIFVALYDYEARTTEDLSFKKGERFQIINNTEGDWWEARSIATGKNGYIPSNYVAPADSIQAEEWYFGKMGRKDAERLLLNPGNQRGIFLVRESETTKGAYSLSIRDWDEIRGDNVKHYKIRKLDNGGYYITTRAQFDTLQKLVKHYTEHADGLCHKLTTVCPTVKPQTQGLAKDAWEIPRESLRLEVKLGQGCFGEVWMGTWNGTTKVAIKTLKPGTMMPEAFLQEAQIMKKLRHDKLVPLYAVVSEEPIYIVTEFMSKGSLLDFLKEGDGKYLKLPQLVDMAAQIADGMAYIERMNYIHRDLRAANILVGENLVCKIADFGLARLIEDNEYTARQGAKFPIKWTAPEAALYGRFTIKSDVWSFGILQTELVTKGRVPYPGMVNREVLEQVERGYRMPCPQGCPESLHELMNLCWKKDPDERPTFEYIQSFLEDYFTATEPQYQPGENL
T3 sequence (P06239 whole entry): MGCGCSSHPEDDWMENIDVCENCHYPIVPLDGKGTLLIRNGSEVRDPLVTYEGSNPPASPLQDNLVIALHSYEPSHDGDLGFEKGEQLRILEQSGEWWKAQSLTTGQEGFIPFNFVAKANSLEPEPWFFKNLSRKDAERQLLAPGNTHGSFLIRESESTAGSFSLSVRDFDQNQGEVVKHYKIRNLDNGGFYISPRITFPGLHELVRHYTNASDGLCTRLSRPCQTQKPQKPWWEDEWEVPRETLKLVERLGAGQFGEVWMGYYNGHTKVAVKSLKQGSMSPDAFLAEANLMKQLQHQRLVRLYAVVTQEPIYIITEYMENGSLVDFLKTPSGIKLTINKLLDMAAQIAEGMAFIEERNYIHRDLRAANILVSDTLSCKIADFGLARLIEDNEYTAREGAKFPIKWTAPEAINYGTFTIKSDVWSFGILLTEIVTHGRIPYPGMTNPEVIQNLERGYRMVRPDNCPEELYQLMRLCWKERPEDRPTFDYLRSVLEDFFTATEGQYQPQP
T2 sequence (P12931 whole entry): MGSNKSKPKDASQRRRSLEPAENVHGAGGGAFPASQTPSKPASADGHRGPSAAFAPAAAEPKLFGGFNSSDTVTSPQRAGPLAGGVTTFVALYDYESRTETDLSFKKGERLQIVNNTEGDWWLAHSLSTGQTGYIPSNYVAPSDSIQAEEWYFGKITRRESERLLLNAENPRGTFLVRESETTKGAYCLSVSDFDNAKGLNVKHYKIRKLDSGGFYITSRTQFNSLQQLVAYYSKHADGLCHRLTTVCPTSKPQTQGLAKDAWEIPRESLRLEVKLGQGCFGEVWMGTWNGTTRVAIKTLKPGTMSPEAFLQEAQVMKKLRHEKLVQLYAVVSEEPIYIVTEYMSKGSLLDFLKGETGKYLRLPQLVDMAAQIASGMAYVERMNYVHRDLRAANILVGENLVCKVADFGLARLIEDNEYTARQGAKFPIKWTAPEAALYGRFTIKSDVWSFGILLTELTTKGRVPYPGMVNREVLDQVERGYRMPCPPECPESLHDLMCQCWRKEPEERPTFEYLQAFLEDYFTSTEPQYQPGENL

For the compound `Cc1cc(Oc2c(F)cccc2F)ncc1-n1ncc(C(=O)c2cc3cc(C4CC4)c(NS(=O)(=O)C4CCOCC4)cc3[nH]2)c1N` [Example 5-1-395, N-[2-[5-amino-1-[6-(2,6-difluorophenoxy)-4-methylpyridin-3-yl]pyrazole-4-carbonyl]-5-cyclopropyl-1H-indol-6-yl]oxane-4-sulfonamide], the IC50 in experiment [1] was found to be 4.8 nM; in experiment [2], 210 nM; in experiment [3], 66 nM.

Regarding `Cc1cc(Oc2ccccc2F)ncc1-n1ncc(C(=O)c2cc3cc(C4CC4)c(NS(=O)(=O)C4CCOCC4)cc3[nH]2)c1N` [Example 5-1-396, N-[2-[5-amino-1-[6-(2-fluorophenoxy)-4-methylpyridin-3-yl]pyrazole-4-carbonyl]-5-cyclopropyl-1H-indol-6-yl]oxane-4-sulfonamide], the IC50 amounted to 3.6 nM in experiment [1], 230 nM in experiment [2] and 68 nM in experiment [3].

Turning to `Cc1cc(Oc2ccccc2F)ccc1-n1ncc(C(=O)c2cc3cc(C4CC4)c(NS(=O)(=O)C4CCOCC4)cc3[nH]2)c1N` [Example 5-1-397, N-[2-[5-amino-1-[4-(2-fluorophenoxy)-2-methylphenyl]pyrazole-4-carbonyl]-5-cyclopropyl-1H-indol-6-yl]oxane-4-sulfonamide], the IC50 stood at 1.8 nM in experiment [1], 90 nM in experiment [2] and 31 nM in experiment [3].

For the compound `Cc1cc(Oc2c(F)cccc2F)ncc1-n1ncc(C(=O)c2cc3cc(F)c(N4CC(C)(C)NS4(=O)=O)cc3[nH]2)c1N` [Example 5-1-398, [5-amino-1-[6-(2,6-difluorophenoxy)-4-methylpyridin-3-yl]pyrazol-4-yl]-[6-(4,4-dimethyl-1,1-dioxo-1,2,5-thiadiazolidin-2-yl)-5-fluoro-1H-indol-2-yl]methanone], the values for the IC50 in experiment [1], in experiment [2] and in experiment [3] were 2.4 nM, 95 nM and 20 nM, respectively.

Regarding `Cc1cc(Oc2c(F)cccc2F)ncc1-n1ncc(C(=O)c2cc3cc(F)c(N4CC5(CCCC5)NS4(=O)=O)cc3[nH]2)c1N` [Example 5-1-399, [5-amino-1-[6-(2,6-difluorophenoxy)-4-methylpyridin-3-yl]pyrazol-4-yl]-[6-(2,2-dioxo-2λ6-thia-1,3-diazaspiro[4.4]nonan-3-yl)-5-fluoro-1H-indol-2-yl]methanone], the results for the IC50 in experiment [1] (setting [4]), in experiment [2] (setting [4]) and in experiment [3] (setting [4]) were 5.7 nM, 250 nM and 53 nM, respectively.

Regarding `Cc1cc(Oc2c(F)cccc2F)ncc1-n1ncc(C(=O)c2cc3cc(F)c(N4CC5(CCOCC5)NS4(=O)=O)cc3[nH]2)c1N` [Example 5-1-400, [5-amino-1-[6-(2,6-difluorophenoxy)-4-methylpyridin-3-yl]pyrazol-4-yl]-[6-(2,2-dioxo-8-oxa-2λ6-thia-13-diazaspiro[4.5]decan-3-yl)-5-fluoro-1H-indol-2-yl]methanone], the IC50 worked out at 2.1 nM in experiment [1] (setting [4]), 76 nM in experiment [2] (setting [4]) and 14 nM in experiment [3] (setting [4]).

In the case of `Cc1cc(Oc2ccccc2F)ncc1-n1ncc(C(=O)c2cc3cc(OC(F)F)c(NS(=O)(=O)C4CCOCC4)cc3[nH]2)c1N` [Example 5-1-401, N-[2-[5-amino-1-[6-(2-fluorophenoxy)-4-methylpyridin-3-yl]pyrazole-4-carbonyl]-5-(difluoromethoxy)-1H-indol-6-yl]oxane-4-sulfonamide], the results for the IC50 in experiment [1] (setting [4]), in experiment [2] (setting [4]) and in experiment [3] (setting [4]) were 2.5 nM, 140 nM and 41 nM, respectively.

Take `Cc1cc(Oc2ccccc2F)ncc1-n1ncc(C(=O)c2cc3cc(OC(F)F)c(N4C(=O)NC(C)(C)C4=O)cc3[nH]2)c1N` [Example 5-1-402, 3-[2-[5-amino-1-[6-(2-fluorophenoxy)-4-methylpyridin-3-yl]pyrazole-4-carbonyl]-5-(difluoromethoxy)-1H-indol-6-yl]-5,5-dimethylimidazolidine-2,4-dione]: the IC50 stood at 1.8 nM in experiment [1] (setting [4]), 63 nM in experiment [2] (setting [4]) and 8.2 nM in experiment [3] (setting [4]).

Consider `Cc1cc(Oc2ccccc2F)ccc1-n1ncc(C(=O)c2cc3cc(F)c(N4CC5(CCOCC5)NS4(=O)=O)cc3[nH]2)c1N` [Example 5-1-403, [5-amino-1-[4-(2-fluorophenoxy)-2-methylphenyl]pyrazol-4-yl]-[6-(2,2-dioxo-8-oxa-2λ6-thia-1.3-diazaspiro[4.5]decan-3-yl)-5-fluoro-1H-indol-2-yl]methanone], for which the IC50 in experiment [1] (setting [4]) was 0.98 nM; in experiment [2] (setting [4]), 88 nM; in experiment [3] (setting [4]), 8.6 nM.

For the compound `Cc1cc2cc(C(=O)c3cnn(-c4cnc(Oc5c(F)cccc5F)cc4C)c3N)[nH]c2cc1N1C(=O)NC2(COC2)C1=O` [Example 5-1-404, 7-[2-[5-amino-1-[6-(2,6-difluorophenoxy)-4-methylpyridin-3-yl]pyrazole-4-carbonyl]-5-methyl-1H-indol-6-yl]-2-oxa-5,7-diazaspiro[3.4] octane-6,8-dione], the IC50 in experiment [1] (setting [4]) was determined as 1.7 nM; in experiment [2] (setting [4]), 48 nM; in experiment [3] (setting [4]), 2.6 nM.

Take `Cc1cc(Oc2c(F)cccc2F)ncc1-n1ncc(C(=O)c2cc3cc(F)c(N4C(=O)CNC4=O)cc3[nH]2)c1N` [Example 5-1-405, 3-[2-[5-amino-1-[6-(2,6-difluorophenoxy)-4-methylpyridin-3-yl]pyrazole-4-carbonyl]-5-fluoro-1H-indol-6-yl]imidazolidine-2,4-dione]: the IC50 in experiment [1] (setting [4]) is 2.7 nM; in experiment [2] (setting [4]), 66 nM; in experiment [3] (setting [4]), 3.2 nM.

As for `Cc1cc(Oc2c(F)cccc2F)ncc1-n1ncc(C(=O)c2cc3cc(F)c(N4C(=O)N[C@@H](C)C4=O)cc3[nH]2)c1N` [Example 5-1-406, (5S)-3-[2-[5-amino-1-[6-(2,6-difluorophenoxy)-4-methylpyridin-3-yl]pyrazole-4-carbonyl]-5-fluoro-1H-indol-6-yl]-5-methylimidazolidine-2,4-dione], the IC50 is 2.2 nM in experiment [1] (setting [4]), 75 nM in experiment [2] (setting [4]) and 3.1 nM in experiment [3] (setting [4]).

Consider `Cc1cc(Oc2c(F)cccc2F)ncc1-n1ncc(C(=O)c2cc3cc(F)c(N4C(=O)N[C@@H](CO)C4=O)cc3[nH]2)c1N` [Example 5-1-407, (5S)-3-[2-[5-amino-1-[6-(2,6-difluorophenoxy)-4-methylpyridin-3-yl]pyrazole-4-carbonyl]-5-fluoro-1H-indol-6-yl]-5-(hydroxymethyl) imidazolidine-2,4-dione], for which the IC50 in experiment [1] (setting [4]) turned out to be 2.2 nM; in experiment [2] (setting [4]) it was 74 nM; in experiment [3] (setting [4]), 3.5 nM.

As to `Cc1cc2cc(C(=O)c3cnn(-c4ccc(Oc5ccccc5F)cc4C)c3N)[nH]c2cc1N1C(=O)NC2(CCOCC2)C1=O` [Example 5-1-408, 3-[2-[5-amino-1-[4-(2-fluorophenoxy)-2-methylphenyl]pyrazole-4-carbonyl]-5-methyl-1H-indol-6-yl]-8-oxa-1,3-diazaspiro[4.5] decane-2,4-dione], the IC50 in experiment [1] (setting [4]) came to 1.2 nM; in experiment [2] (setting [4]), 43 nM; in experiment [3] (setting [4]), 6.1 nM.

Take `Cc1cc2cc(C(=O)c3cnn(-c4ccc(Oc5ccccc5F)cc4C)c3N)[nH]c2cc1N1C(=O)NC2(CCCCC2)C1=O` [Example 5-1-409, 3-[2-[5-amino-1-[4-(2-fluorophenoxy)-2-methylphenyl]pyrazole-4-carbonyl]-5-methyl-1H-indol-6-yl]-1,3-diazaspiro[4.5]decane-2,4-dione]: the IC50 in experiment [1] (setting [4]) is 3.1 nM; in experiment [2] (setting [4]), 160 nM; in experiment [3] (setting [4]), 20 nM.

As to `Cc1cc2cc(C(=O)c3cnn(-c4ccc(Oc5ccccc5F)cc4C)c3N)[nH]c2cc1N1C(=O)NC2(COC2)C1=O` [Example 5-1-410, 7-[2-[5-amino-1-[4-(2-fluorophenoxy)-2-methylphenyl]pyrazole-4-carbonyl]-5-methyl-1H-indol-6-yl]-2-oxa-5,7-diazaspiro[3.4] octane-6,8-dione], the figures for the IC50 in experiment [1] (setting [4]), in experiment [2] (setting [4]) and in experiment [3] (setting [4]) were 0.56 nM, 22 nM and 2.9 nM, respectively.

For `Cc1cc(Oc2ccccc2F)ccc1-n1ncc(C(=O)c2cc3cc(F)c(N4C(=O)N[C@@H](C)C4=O)cc3[nH]2)c1N` [Example 5-1-411, (5S)-3-[2-[5-amino-1-[4-(2-fluorophenoxy)-2-methylphenyl]pyrazole-4-carbonyl]-5-fluoro-1H-indol-6-yl]-5-methylimidazolidine-2,4-dione], the IC50 in experiment [1] (setting [4]) amounted to 0.73 nM; in experiment [2] (setting [4]) it was 37 nM; in experiment [3] (setting [4]), 4.2 nM.

As to `Cc1cc(Oc2ccccc2F)ccc1-n1ncc(C(=O)c2cc3cc(F)c(N4C(=O)NC(C)(C(F)(F)F)C4=O)cc3[nH]2)c1N` (stereo not drawn) [Example 5-1-412, 3-[2-[5-amino-1-[4-(2-fluorophenoxy)-2-methylphenyl]pyrazole-4-carbonyl]-5-fluoro-1H-indol-6-yl]-5-methyl-5-(trifluoromethyl) imidazolidine-2,4-dione], the figures for the IC50 in experiment [1] (setting [4]), in experiment [2] (setting [4]) and in experiment [3] (setting [4]) were 3 nM, 100 nM and 17 nM, respectively.

Turning to `Cc1cc(Oc2ccccc2F)ncc1-n1ncc(C(=O)c2cc3cc(F)c(N4CC5(CCOCC5)NS4(=O)=O)cc3[nH]2)c1N` [Example 5-1-413, [5-amino-1-[6-(2-fluorophenoxy)-4-methylpyridin-3-yl]pyrazol-4-yl]-[6-(2,2-dioxo-8-oxa-2λ6-thia-1,3-diazaspiro[4.5]decan-3-yl)-5-fluoro-1H-indol-2-yl]methanone], the IC50 is 1.5 nM in experiment [1] (setting [4]), 90 nM in experiment [2] (setting [4]) and 17 nM in experiment [3] (setting [4]).
